# Tests used:
# [1] = molecular target: T1, TrpCysGlyHisCysLys (PDI active site hexapeptide) (Homo sapiens, UniProt P07237); experiment: Binding of GSAO to dithiols, loss of thiols in DTNB assay
# T1 construct: purchased Auspep, Parkville, Australia; host or cells: synthetic peptide
# Experimental: (§1) FIG. 12. Interaction of GSAO with synthetic. Deptide and protein dithiols. DMP (A) (15 μM), 6,8-thioctic acid (B) ([…]), dithiothreitol (C) (8.5 μM), TrpCysGlyProCysLys (D) (4.6 μM), TrpCysGlyHisCysLys (E) (5.5 μM) or thioredoxin (F) (4.1 μM corresponding to 20.6 μM thiols) was incubated with GSAO (0–56 μM) for 10 minutes. DTNB (950 μM) was then added and the reactions incubated for a further 10 minutes. The concentration of thiol in the reactions was determined from the absorbance of the TNB dianion at 412 nm. The solid lines represent the best non-linear least squares fit of the data to Equation 1 (A to E) or Equation 2 (F) and have been drawn using the parameter estimates in Table 1. The dotted line in part A represents a simulated titration assuming an infinite affinity of GSAO for the dithiol. GSAO bound to both synthetic, peptide and protein dithiols with dissociation constants in the range 130 nM to 1.4 μM.
# (§2) A stock solution of DMP (5 μL, 50 μmol) was dissolved in DMSO (995 μL), giving a concentration of 50 mM DMP. A second dilution of the 50 mM DMP stock solution (10 μL) in pH 7.0 buffer (0.1 M HEPES, 0.3 M NaCl, 1 mM EDTA) (990 μL) gave a working solution of 500 ? M DMP. The activity of the arsenical could then be determined by the titration of varying amounts of arsenical against the DMP working solution (10 μL) in a 96-well microbitre plate, with the total volume made up to 195 μL by addition of buffer. After a 10 minute incubation at room temperature, during which time the solutions were agitated on a plate shaker, 5 μL of a 37.9 mM stock solution of DTNB (15 mg) in DMSO (1 mL) was added, and the plate incubated with shaking for another 10 minutes. The absorbance at 412 nm due to the formation of the TNB dianion was measured using a Molecular Devices Thermomax Plus (Palo Alto, Calif.) microplate reader. The extinction coefficient for the TNB dianion at pH 7.0 is 14,150 M^−1cm^−1 at 412 nm (Riddles et al., 1983).
# (§3) Recombinant human thioredoxin produced in E. coli was from American Diagnostica, Greenwich, Conn. The hexapeptides, TrpCysGlyProCysLys (SEQ ID NO: 1) and TrpCysGiyHisCysLys (SEQ ID NO: 2), were from Auspep, Parkville, Australia.
# (§4) Binding of GSAO to dithiols was measured from loss of thiols using the DTNB assay described above. The dissociation constant, Kd, for GSAO binding to dithiols was determined by incubating increasing concentrations of GSAO, I, with a fixed dithiol concentration, [S]T, and measuring the remaining dithiol using DTNB. Note that the concentration of dithiol equals half the TNB concentration. The concentration of dithiol.GSAO complex, SI, as a function of the total GSAO concentration, [I]T, is described by Equation 1 (Hogg and Jackson, 1990), [SI]=0.5.{([S]T+x.[I]T+Kd)−(([S]T+x.[I]T+Kd)^2−4.[S]T.x.[I]T)^0.5} (1) […]
# [2] = molecular target: T2, TrpCysGlyProCysLys (thioredoxin active site hexapeptide) (Homo sapiens, UniProt P10599); experiment: as above
# T2 construct: purchased Auspep, Parkville, Australia; host or cells: synthetic peptide
# Experimental: as §1, §2, §3, §4
# [3] = Interaction of GSAO with synthetic, peptide and protein dithiols (summary); format: binding; details: units printed within the range; read-out: dissociation constants, range over all dithiols
# Experimental: as §1
# Binding of GSAO to dithiols was measured from loss of thiols using the DTNB assay described above. The dissociation constant, Kd, for GSAO binding to dithiols was determined by incubating increasing concentrations of GSAO, I, with a fixed dithiol concentration, [S]T, and measuring the remaining dithiol using DTNB. Note that the concentration of dithiol equals half the TNB concentration. […]
# Thioredoxin = molecular target: T3, Thioredoxin (Homo sapiens, UniProt P10599); experiment: Inhibition of thioredoxin-mediated reduction of 70 kDa fibronectin fragment; format: biochemical; details: 1 μM thioredoxin, 10 minutes
# T3 construct: purchased American Diagnostica, Greenwich, Conn; host or cells: E. coli
# T3 sequence (P10599 1-105): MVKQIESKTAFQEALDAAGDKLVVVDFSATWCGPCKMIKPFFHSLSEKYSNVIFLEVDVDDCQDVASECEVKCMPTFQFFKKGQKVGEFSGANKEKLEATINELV
# Experimental: FIG. 13. Inhibition of thioredoxin by GSAO. Thioredoxin (1 μM) was incubated with GSAO (0, 1 or 10 μM) for 10 minutes at room temperature in 20 mM Hepes, 0.14 M NaCl, pH 7.4 buffer. The 70 kDa fibronectin fragment (10 μg per mL) was added and incubated for 5 minutes at room temperature. The reactions were labelled with MPB (100 μM) for 10 minutes at 37° C. The MPB was quenched with GSH (200 μM) for 10 minutes at 37° C. followed by Iodoacetamide (400 μM) for 10 minutes at room temperature. The MPB-labelled 70 kDa fragment was resolved on 5–15% SDS-PAGE, transferred to PVDF membrane and the MPB detected by blotting with streptavidin peroxidase. The positions of Mr markers are shown at left.
# It was observed that thioredoxin reduced one or more protein disulfide bonds in the 70 kDa N-terminal fragment of fibronectin.
# Human T cells (A3.01) = experiment: Membrane permeability, tritiated GSAO in cytosol; format: in vitro ADME; details: 50 μM GSAO
# Experimental: Human T cells (A3.01) or adherent BAE cells were incubated with complete medium containing 50 μM GSAO and ˜100,000 counts per minute of tritiated GSAO for 1 or 72 hours. Tritiated GSAO was prepared exactly as described for GSAO except that glycine-2-^3H-glutathione (NEN, Boston, Mass.) was used in place of cold glutathione. The cells were washed and lysed by two cycles of freezing and thawing. The cytosolic constituents were collected by differential centrifugation (Ausbel et al., 2000) and the tritiated GSAO was measured. Only 0.5% of the total tritiated GSAO was found in the T cell cytosol and 0.04% in the BAE cytosol after 1 hour. Moreover, only 4.5% of the GSAO penetrated the T cell membrane after 72 hours of culture.
# [4] = test system: adjuvant-induced arthritis; details: rat, in vivo
# [5] = Dissociation Constant, ring size 15, errors are 1 SD
# [6] = dissociation constant, approximate value
compound,measurement,setting,value
"NC(CCC(=O)NC(CSCC(=O)Nc1ccc([As]=O)cc1)C(=O)NCC(=O)O)C(=O)O (stereo not drawn) [GSAO, 4-(N-(S-glutathionylacetyl)amino)-phenylarsenoxide]",Kd,[1]; [5],0.87 ± 0.27 µM
same,Kd,[1]; [6],~1 µM
same,Kd,[2]; [5],1.42 µM
same,Kd,[2]; [6],~1 µM
same,Kd,[3],0.13 to 1.4 µM
same,inhibition at 1 µM,Thioredoxin; 1 μM GSAO,~50%
same,inhibition of thioredoxin activity,Thioredoxin; 10 μM GSAO,completely inhibited
same,total tritiated GSAO found in the cytosol,Human T cells (A3.01); 1 hour,0.5%
same,GSAO that penetrated the T cell membrane,Human T cells (A3.01); 72 hours of culture,4.5%
same,"development of arthritis measured by arthritis severity score, gait, paw volume or weight loss",[4],effectively blocked
same,signs or symptoms of toxicity for the rats,[4],no signs or symptoms of toxicity
same,"weight gain, GSCA vs GSAO treated rats",[4]; 2 mg/kg,no difference in weight gain

# From patent US7186695B2 (priority 2001, dated 2007)
